5 compounds from the supplement of paper PMC11061612 can be followed below.

Holding throughout (assay): combination Emax (second highest fraction inhibited in the dose matrix, 72 h); higher = more inhibition; extreme values may be limits of the assay
Assay [1] relates to VAL (B-Cell Non-Hodgkin's Lymphoma). The procedure, abridged: (§1)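 Cell lines grown in DMEM/F12 or RPMI with 10% FBS were plated in 1536-well plates and held 24 hours at 37°C, 5% CO2 before 72 hours of exposure to two-drug dose matrices, with DMSO typically at 0.2%. CellTiter-Glo 2.0 luminescence gave viability, which was converted to inhibition. Vehicle wells were set to 0 and blank wells to 1. Combination Emax is the second-highest inhibition in the matrix, and Bliss excess is the observed combination effect minus the expected EA + EB − EA·EB, where EA and EB are the single-agent effects.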

Assay [2] relates to FADU (Head and Neck Carcinoma). In short, it runs like this: as §1
In assay [3] the test system is TE-8 (Esophageal Squamous Cell Carcinoma). In short, it runs like this: as §1
The test system of assay [4] is OPM-2 (Plasma Cell Myeloma). In short, it runs like this:
as §1

Assay [5] relates to HSC-39 (Gastric Carcinoma). In short, it runs like this:
as §1

The test system of assay [6] is PSN1 (Pancreatic Carcinoma). In short, it runs like this:
as §1

In assay [7] the test system is GP5d (Colorectal Carcinoma). The procedure, abridged:
as §1

Assay [8] has as its system SHP-77 (Small Cell Lung Carcinoma). The procedure, abridged:
as §1

Assay [9] relates to SU-DHL-10 (B-Cell Non-Hodgkin's Lymphoma). The procedure, abridged: as §1
Assay [10] deals with A2058 (Melanoma). The procedure, abridged: as §1
Assay [11] has as its system RCM-1 (Colorectal Carcinoma). In short, it runs like this:
as §1

The test system of assay [12] is OVMIU (Ovarian Carcinoma). The procedure, abridged:
as §1

Assay [13] relates to RKN (Other Solid Carcinomas). The procedure, abridged: as §1
Assay [14] deals with GB-1 (Glioblastoma). In short, it runs like this: as §1
Assay [15] has as its system HCT-15 (Colorectal Carcinoma). In short, it runs like this: as §1
The test system of assay [16] is L-1236 (Hodgkin's Lymphoma). In short, it runs like this: as §1
The subject of assay [17] is NCI-H446 (Small Cell Lung Carcinoma). The procedure, abridged:
as §1

Assay [18] deals with PC-3_[JPC-3] (Lung Adenocarcinoma). The procedure, abridged:
as §1

For assay [19], the system named is RERF-GC-1B (Gastric Carcinoma). The procedure, abridged:
as §1

The subject of assay [20] is MKN45 (Gastric Carcinoma). The procedure, abridged:
as §1

Molecules are shown by their SMILES.

With `Cc1c2c(nn1C)CSCc1cc(n(C)n1)CSc1cc(c3ccccc3c1)OCCCc1c(C(=O)O)n(C)c3c-2c(Cl)ccc13` [AZD5991] + CC1(C)CCC(CN2CCN(c3ccc(C(=O)NS(=O)(=O)c4ccc(NCC5CCOCC5)c([N+](=O)[O-])c4)c(Oc4cnc5[nH]ccc5c4)c3)CC2)=C(c2ccc(Cl)cc2)C1 [Venetoclax] (first compound max 1 µM, 7x7, partner max 1 µM), the “combination Emax” value was determined as 1 in assay [1]; 0.946 in assay [2]; 0.403 in assay [3]; 1 in assay [4]; 1 in assay [5]; 0.145 in assay [6]. Also, the “combination Emax” value in assay [7] is 0.928; in [8] it was 0.753; in [9], 1; in assay [10], 0.914; in assay [11], 0.171; in [12], 0.318. The “combination Emax” value in assay [13] came out at 0.146; in [14], 0.133; in assay [15], 0.182; in [16] it was 0.764; in [17], 0.86; in assay [18], 0.254. The results for the “combination Emax” value in assay [19] and in assay [20] were 1 and 0.168, respectively.

Consider `CC1(C)CCC(CN2CCN(c3ccc(C(=O)NS(=O)(=O)c4ccc(NCC5CCOCC5)c([N+](=O)[O-])c4)c(Oc4cnc5[nH]ccc5c4)c3)CC2)=C(c2ccc(Cl)cc2)C1` [Venetoclax] + C1CN(CCC1(C(=O)N[C@@H](CCO)C2=CC=C(C=C2)Cl)N)C3=NC=NC4=C3C=CN4 [Capivasertib] (first compound max 1 µM, 7x7, partner max 3 µM), for which the “combination Emax” value was determined as 1 in assay [1]; 0.155 in [2]; 0.424 in [3]; 0.925 in [4]; 0.956 in [5]; 0.218 in [6]. Besides, the “combination Emax” value in assay [7] amounted to 0.557; in assay [8], 0.402; in assay [9], 0.957; in [10], 0.323; in assay [11], 0.367; in [12], 0.285. Besides, the “combination Emax” value was found to be 0.149 in assay [13]; 0.185 in [14]; 0.254 in assay [15]; 0.644 in [16]; 0.561 in [17]; 0.168 in assay [18]. Moreover, the entries for the “combination Emax” value in [19] and in assay [20] were 0.335 and 0.581, respectively.

`CC(=O)c1c(C)c2cnc(Nc3ccc(N4CCNCC4)cn3)nc2n(C2CCCC2)c1=O` [Palbociclib] + Cn1cnc2c(F)c(Nc3ccc(Br)cc3Cl)c(C(=O)NOCCO)cc21 [Selumetinib] (first compound max 10 µM, 7x7, partner max 10 µM): the “combination Emax” value is 0.599 in assay [1]; 0.412 in assay [2]; 0.383 in assay [3]; 0.448 in assay [4]; 0.667 in assay [5]; 0.702 in assay [6]. Moreover, the “combination Emax” value was found to be 0.768 in assay [7]; 0.527 in assay [8]; 0.997 in assay [9]; 0.47 in assay [10]; 0.63 in [11]; 0.427 in assay [12]. In addition, the “combination Emax” value was determined as 0.399 in [13]; 0.275 in assay [14]; 0.523 in [15]; 0.658 in assay [16]; 0.567 in assay [17]; 0.29 in assay [18]. Moreover, the “combination Emax” value in [19] was found to be 0.333; in [20], 0.694.

As to `COc1cccc(OCCCN)c1-c1cc(Nc2cnc(C#N)cn2)n[nH]1` [Prexasertib] + C=CCn1c(=O)c2cnc(Nc3ccc(N4CCN(C)CC4)cc3)nc2n1-c1cccc(C(C)(C)O)n1 [AZD1775] (first compound max 1 µM, partner max 1 µM), the “combination Emax” value in assay [1] amounted to 0.921; in [2], 0.914; in assay [3], 0.966; in assay [4], 0.967; in assay [5], 1; in assay [6], 0.781. Also, the “combination Emax” value was 1 in assay [7]; 0.949 in [8]; 1 in assay [9]; 0.519 in [10]; 0.822 in [11]; 0.814 in assay [12]. Moreover, the “combination Emax” value amounted to 0.833 in [13]; 0.651 in [14]; 0.972 in [15]; 0.786 in [16]; 0.995 in assay [17]; 0.588 in [18]. In addition, the “combination Emax” value in assay [19] was determined as 0.887; in assay [20] it was 0.865.

With `C=CCn1c(=O)c2cnc(Nc3ccc(N4CCN(C)CC4)cc3)nc2n1-c1cccc(C(C)(C)O)n1` [AZD1775] + C[C@@H]1COCCN1C2=NC(=NC(=C2)C3(CC3)[S@](=N)(=O)C)C4=C5C=CNC5=NC=C4 [AZD6738] (first compound max 1 µM, partner max 10 µM), the “combination Emax” value amounted to 0.881 in assay [1]; 0.875 in assay [2]; 0.932 in assay [3]; 0.893 in assay [4]; 1 in [5]; 0.764 in assay [6]. The “combination Emax” value in [7] was 0.927; in [8], 0.827; in assay [9], 1; in assay [10], 0.413; in assay [11], 0.852; in [12], 0.731. The “combination Emax” value in [13] was determined as 0.35; in assay [14], 0.595; in assay [15] it was 0.933; in [16], 0.782; in assay [17], 0.951; in assay [18], 0.537. Besides, the figures for the “combination Emax” value in assay [19] and in assay [20] were 0.851 and 0.787, respectively.
